Tested on: A/Kawasaki/UTK-4/09 (H1N1)
Format: cell-based, influenza A virus (H1N1)

## CCOC(=O)C1=C[C@@H](OC(CC)CC)[C@H](NC(C)=O)[C@@H](N)C1 [oseltamivir]
  susceptibility of virus in cell culture (in words): resistance
